Values quoted from earlier work as cited in patent publication US20210213091A1, “LIPOPHILIC ACTIVE AGENT INFUSED TOBACCO LEAVES AND/OR TOBACCO MATERIALS AND METHODS OF USE THEREOF” (priority 2018, published 2021).

human pulmonary uptake: 60%
Compound: CC1=CC[C@H]2C[C@@H]1C2(C)C [α-Pinene, (1S,5S)-2,6,6-Trimethylbicyclo[3.1.1]hept-2-ene]
